Source: patent US7902184B2, “Piperazinyl pyrimidine derivatives” (Hoffmann-La Roche Inc., priority 2006, dated 2011)

Target: T1, histamine 3 receptor (H3R) (Homo sapiens, UniProt Q9Y5N1)
T1 construct: expressed in transfected cells; host or cells: CHO cells (membranes)
Test: Binding assay with 3H-(R)α-methylhistamine (competition binding, H3R-CHO membranes)
Details: membrane of the human H3R-CHO cell line; 3H(R)α-methylhistamine 1 nM; Ki calculated from IC50 by Cheng-Prusoff
Protocol: Binding Assay with ^3H—(R)α-methylhistamine
Saturation binding experiments were performed using HR3-CHO membranes prepared as described in Takahashi, K, Tokita, S., Kotani, H. (2003) J. Pharmacol. Exp. Therapeutics 307, 213-218.
An appropriate amount of membrane (60 to 80 μg protein/well) was incubated with increasing concentrations of ^3H(R)α-methylhistamine di-hydrochloride (0.10 to 10 nM). Non specific binding was determined using a 200 fold excess of cold (R)α-methylhistamine dihydrobromide (500 nM final concentration). The incubation was carried out at room temperature (in deep-well plates shaking for three hours). The final volume in each well was 250 μl. The incubation was followed by rapid filtration on GF/B filters (pre-soaked with 100 μl of 0.5% PEI in Tris 50 mM shaking at 200 rpm for two hours). The filtration was made using a cell-harvester and the filter plates were then washed five times with ice cold washing buffer containing 0.5 M NaCl. After harvesting, the plates were dried at 55° C. for 60 min, then scintillation fluid (Microscint 40, 40 microl in each well) was added and the amount of radioactivity on the filter was determined in Packard top-counter after shaking the plates for two hours at 200 rpm at room temperature.
Binding Buffer: 50 mM Tris-HCl pH 7.4 and 5 mM MgCl2×6H2O pH 7.4. Washing Buffer: 50 mM Tris-HCl pH 7.4 and 5 mM MgCl2×6H2O and 0.5 M NaCl pH 7.4.
Indirect measurement of affinity of H3R inverse agonists: twelve increasing concentrations (ranging from 10 μM to 0.3 nM) of the selected compounds were always tested in competition binding experiments using membrane of the human H3R-CHO cell line. […]
All compounds were tested at a single concentration in duplicate. […] Ki's were calculated from IC50 based on Cheng-Prusoff equation (Cheng, Y, Prusoff, W H (1973) Biochem Pharmacol 22, 3099-3108): Ki=IC50/[1+D/Kd] wherein D is the concentration of the radioligand and Kd is the binding constant for the radioligand binding to the receptor and the conditions used in the competition experiment.

T1 sequence (Q9Y5N1 whole entry): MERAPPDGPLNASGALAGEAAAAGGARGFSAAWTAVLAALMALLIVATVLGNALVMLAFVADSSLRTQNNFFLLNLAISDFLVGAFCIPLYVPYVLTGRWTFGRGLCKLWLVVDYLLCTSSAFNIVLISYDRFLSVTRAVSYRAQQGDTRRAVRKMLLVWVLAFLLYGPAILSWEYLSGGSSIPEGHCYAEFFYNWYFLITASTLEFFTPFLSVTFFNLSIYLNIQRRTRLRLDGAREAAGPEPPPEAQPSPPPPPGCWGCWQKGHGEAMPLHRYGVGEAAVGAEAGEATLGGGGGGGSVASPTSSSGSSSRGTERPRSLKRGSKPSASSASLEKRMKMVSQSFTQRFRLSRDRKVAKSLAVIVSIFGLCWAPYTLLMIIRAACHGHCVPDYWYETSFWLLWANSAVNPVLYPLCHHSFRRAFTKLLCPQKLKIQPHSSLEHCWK

| Structure (SMILES) | Ki [µM] |
| --- | --- |
| CC1CC(C)CN(C(=O)Nc2cc(N3CCN(C4CCCCC4)CC3)ncn2)C1 (stereo not drawn) [Example 93, 3,5-Dimethyl-piperidine-1-carboxylic acid [6-(4-cyclohexyl-piperazin-1-yl)-pyrimidin-4-yl]-amide] | 0.0222 |
| CC(C)N1CCN(c2cc(NC(=O)N3CCCCC3)ncn2)CC1 [Example 54, piperidine-1-carboxylic acid [6-(4-isopropyl-piperazin-1-yl)-pyrimidin-4-yl]-amide] | 0.0346 |
| O=C(Nc1ccnc(N2CCN(C3CCCC3)CC2)n1)N1CCCCCC1 [Example 6, azepane-1-carboxylic acid [2-(4-cyclopentyl-piperazin-1-yl)-pyrimidin-4-yl]-amide] | 0.051 |
